Data from PubChem BioAssay AID1259407 (Chemical Carcinogenesis Research Information System (CCRIS), 2018).
Active and inactive are the calls of the source. No rule for the calls is given here.

Test system: CCRIS mutagenicity, Ames/micronucleus/aberration tests
Test: CCRIS mutagenicity studies

Nc1ccc(Cl)cc1
mutagenic call (Test System: AMES SALMONELLA TYPHIMURIUM, Strain/Indicator: TA1535, Metabolic Activation: NONE, Method: STANDARD PLATE): inactive; negative | mutagenic call (Test System: AMES SALMONELLA TYPHIMURIUM, Strain/Indicator: TA1535, Metabolic Activation: RAT, LIVER, S-9, AROCLOR 1254, Method: PREINCUBATION): inactive; negative | mutagenic call (Test System: AMES SALMONELLA TYPHIMURIUM, Strain/Indicator: TA1535, Metabolic Activation: RAT, LIVER, S-9, AROCLOR 1254, Method: SPOT TEST): inactive; negative | mutagenic call (Test System: AMES SALMONELLA TYPHIMURIUM, Strain/Indicator: TA1535, Metabolic Activation: RAT, LIVER, S-9, AROCLOR 1254, Method: STANDARD PLATE): inactive; negative | mutagenic call (Test System: AMES SALMONELLA TYPHIMURIUM, Strain/Indicator: TA1535, Metabolic Activation: RAT, LIVER, S-9, SODIUM PHENOBARBITONE, Method: SPOT TEST): inactive; negative | mutagenic call (Test System: AMES SALMONELLA TYPHIMURIUM, Strain/Indicator: TA1535, Metabolic Activation: RAT, LIVER, S-9, SODIUM PHENOBARBITONE, Method: STANDARD PLATE): inactive; negative | mutagenic call (Test System: AMES SALMONELLA TYPHIMURIUM, Strain/Indicator: TA1537, Metabolic Activation: HAMSTER, LIVER, S-9, AROCLOR 1254, Method: PREINCUBATION): inactive; negative | mutagenic call (Test System: AMES SALMONELLA TYPHIMURIUM, Strain/Indicator: TA1537, Metabolic Activation: NONE, Method: PREINCUBATION): inactive; negative | mutagenic call (Test System: AMES SALMONELLA TYPHIMURIUM, Strain/Indicator: TA1537, Metabolic Activation: NONE, Method: SPOT TEST): inactive; negative | mutagenic call (Test System: AMES SALMONELLA TYPHIMURIUM, Strain/Indicator: TA1537, Metabolic Activation: NONE, Method: STANDARD PLATE): inactive; negative | mutagenic call (Test System: AMES SALMONELLA TYPHIMURIUM, Strain/Indicator: TA1537, Metabolic Activation: RAT, LIVER, S-9, AROCLOR 1254, Method: PREINCUBATION): inactive; negative | mutagenic call (Test System: AMES SALMONELLA TYPHIMURIUM, Strain/Indicator: TA1537, Metabolic Activation: RAT, LIVER, S-9, AROCLOR 1254, Method: SPOT TEST): inactive; negative | mutagenic call (Test System: AMES SALMONELLA TYPHIMURIUM, Strain/Indicator: TA1537, Metabolic Activation: RAT, LIVER, S-9, AROCLOR 1254, Method: STANDARD PLATE): inactive; negative | mutagenic call (Test System: AMES SALMONELLA TYPHIMURIUM, Strain/Indicator: TA1537, Metabolic Activation: RAT, LIVER, S-9, SODIUM PHENOBARBITONE, Method: SPOT TEST): inactive; negative | mutagenic call (Test System: AMES SALMONELLA TYPHIMURIUM, Strain/Indicator: TA1537, Metabolic Activation: RAT, LIVER, S-9, SODIUM PHENOBARBITONE, Method: STANDARD PLATE): inactive; negative | mutagenic call (Test System: AMES SALMONELLA TYPHIMURIUM, Strain/Indicator: TA1538, Metabolic Activation: NONE, Method: SPOT TEST): inactive; negative | mutagenic call (Test System: AMES SALMONELLA TYPHIMURIUM, Strain/Indicator: TA1538, Metabolic Activation: NONE, Method: STANDARD PLATE): inactive; negative | mutagenic call (Test System: AMES SALMONELLA TYPHIMURIUM, Strain/Indicator: TA1538, Metabolic Activation: RAT, LIVER, S-9, AROCLOR 1254, Method: SPOT TEST): inactive; negative | mutagenic call (Test System: AMES SALMONELLA TYPHIMURIUM, Strain/Indicator: TA1538, Metabolic Activation: RAT, LIVER, S-9, AROCLOR 1254, Method: STANDARD PLATE): inactive; negative | mutagenic call (Test System: AMES SALMONELLA TYPHIMURIUM, Strain/Indicator: TA1538, Metabolic Activation: RAT, LIVER, S-9, SODIUM PHENOBARBITONE, Method: SPOT TEST): inactive; negative | mutagenic call (Test System: AMES SALMONELLA TYPHIMURIUM, Strain/Indicator: TA1538, Metabolic Activation: RAT, LIVER, S-9, SODIUM PHENOBARBITONE, Method: STANDARD PLATE): inactive; negative | mutagenic call (Test System: E. COLI, Strain/Indicator: WP2 UVRA(P), Metabolic Activation: NONE, Method: STANDARD PLATE): inactive; negative | mutagenic call (Test System: E. COLI, Strain/Indicator: WP2 UVRA, Metabolic Activation: NONE, Method: FLUCTUATION TEST): inactive; negative | mutagenic call (Test System: E. COLI, Strain/Indicator: WP2 UVRA, Metabolic Activation: NONE, Method: STANDARD PLATE): inactive; negative | mutagenic call (Test System: MOUSE LYMPHOMA, Strain/Indicator: L5178Y (TK+/TK-), Metabolic Activation: NONE, Method: SUSPENSION/PLATE): active; positive | mutagenic call (Test System: MOUSE LYMPHOMA, Strain/Indicator: L5178Y (TK+/TK-), Metabolic Activation: RAT, LIVER, S-9, AROCLOR 1254, Method: SUSPENSION/PLATE): active; positive | mutagenic call (Test System: Mouse lymphoma, Strain/Indicator: L5178Y (tk+/tk-), Metabolic Activation: None, Method: Suspension/plate): active; equivocal (previous evaluation positive) | mutagenic call (Test System: Mouse lymphoma, Strain/Indicator: T5178Y (tk+/tk-), Metabolic Activation: Rat, Liver, S-9, Aroclor 1254, Method: Suspension/plate): active; inconclusive (previous evaluation positive)
